Laboratory results taken from patent US8952024B2, “Herbicidal pyrimidone derivatives” (E I du Pont de Nemours and Company, priority 2009, dated 2015).

Tests used:
Assay in all cases: Test B pre-/postemergence plant response
Format in all cases: in vivo
soybean (Glycine max) = system: soybean (Glycine max)
Summary of the method: (§1)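 Steps: sow seed in loam–sand soil and spray preemergence, or grow plants in peat-based medium to 1–4 leaves (2–18 cm) and spray postemergence; formulation is non-phytotoxic solvent plus surfactant; hold in greenhouse 13–15 days; score visually vs controls, 0 = no effect, 100 = complete control.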

[1] = system: johnsongrass (Sorghum halepense)
Summary of the method: as §1

[2] = system: morningglory (Ipomoea coccinea)
Summary of the method: as §1

[3] = system: blackgrass (Alopecurus myosuroides)
Summary of the method: as §1

[4] = system: large crabgrass (Digitaria sanguinalis)
Summary of the method: as §1

[5] = system: cocklebur (Xanthium strumarium)
Summary of the method: as §1

[6] = system: Surinam grass (Brachiaria decumbens)
Summary of the method: as §1

wild oat (Avena fatua) = system: wild oat (Avena fatua)
Summary of the method: as §1

[7] = system: velvetleaf (Abutilon theophrasti)
Summary of the method: as §1

[8] = system: woolly cupgrass (Eriochloa villosa)
Summary of the method: as §1

[9] = system: goosegrass (Eleusine indica)
Summary of the method: as §1

corn (Zea mays) = system: corn (Zea mays)
Summary of the method: as §1

[10] = system: green foxtail (Setaria viridis)
Summary of the method: as §1

kochia (Kochia scoparia) = system: kochia (Kochia scoparia)
Summary of the method: as §1

[11] = system: downy bromegrass (Bromus tectorum)
Summary of the method: as §1

[12] = system: yellow nutsedge (Cyperus esculentus)
Summary of the method: as §1

[13] = system: giant foxtail (Setaria faberii)
Summary of the method: as §1

[14] = 31 g ai/ha, postemergence, scale 0 to 100, 0 is no effect, 100 is complete control
[15] = 62 g ai/ha, postemergence, 0 is no effect, 100 is complete control, 13 to 15 days
[16] = Postemergence, 125 g ai/ha, visual rating after 13 to 15 days, scale 0 (no effect) to 100 (complete control)
[17] = Postemergence, 250 g ai/ha, scale 0 to 100 (0 no effect, 100 complete control)
[18] = 250 g ai/ha, Preemergence, 0 to 100 scale
[19] = Preemergence, 31 g ai/ha, scale 0 to 100 (0 no effect, 100 complete control)
[20] = Preemergence, 62 g ai/ha, scale 0 to 100, 0 no effect, 100 complete control
[21] = Preemergence, 125 g ai/ha, scale 0 to 100, 0 no effect, 100 complete control

Question: Which results are given for `CC(C)Cc1ncc(C(=O)C2=C(O)CCCC2=O)c(=O)n1-c1ccccc1` [Compound 68]?
Answer: Plant response rating, Soybean (soybean (Glycine max); [14]): 80; Soybean plant response rating (0 to 100 scale) (soybean (Glycine max); [15]): 95; Plant response rating, Soybean (soybean (Glycine max); [16]): 98; Plant response rating, Soybean (soybean (Glycine max); [17]): 98; Plant response rating, Johnsongrass [1, 14]: 10; Johnsongrass plant response rating (0 to 100 scale) [1, 15]: 10; Plant response rating, Johnsongrass [1, 18]: 95; Plant response rating, Johnsongrass [1, 16]: 75; Plant response rating, Johnsongrass [1, 17]: 100; Plant response rating, Johnsongrass [1, 19]: 0; Plant response rating, Johnsongrass [1, 20]: 5; Plant response rating, Johnsongrass [1, 21]: 75; Plant response rating, Morningglory [2, 14]: 80; Morningglory plant response rating (0 to 100 scale) [2, 15]: 85; Plant response rating, Morningglory [2, 16]: 98; Plant response rating, Morningglory [2, 17]: 100; Plant response rating, Morningglory [2, 19]: 0; Plant response rating, Morningglory [2, 20]: 55; Plant response rating, Morningglory [2, 21]: 65; Plant response rating, Blackgrass [3, 14]: 0; Blackgrass plant response rating (0 to 100 scale) [3, 15]: 0; Plant response rating, Blackgrass [3, 18]: 5; Plant response rating, Blackgrass [3, 16]: 0; Plant response rating, Blackgrass [3, 17]: 20; Plant response rating, Blackgrass [3, 19]: 0; Plant response rating, Blackgrass [3, 20]: 0; Plant response rating, Blackgrass [3, 21]: 0; Plant response rating, Crabgrass, Large [4, 14]: 75; Crabgrass, Large plant response rating (0 to 100 scale) [4, 15]: 90; Plant response rating, Crabgrass, Large [4, 18]: 100; Plant response rating, Crabgrass, Large [4, 16]: 90; Plant response rating, Crabgrass, Large [4, 17]: 98; Plant response rating, Crabgrass, Large [4, 19]: 65; Plant response rating, Crabgrass, Large [4, 20]: 95; Plant response rating, Crabgrass, Large [4, 21]: 98; Plant response rating, Cocklebur [5, 14]: 25; Cocklebur plant response rating (0 to 100 scale) [5, 15]: 75; Plant response rating, Cocklebur [5, 18]: 80; Plant response rating, Cocklebur [5, 16]: 90; Plant response rating, Cocklebur [5, 17]: 90; Plant response rating, Cocklebur [5, 19]: 0; Plant response rating, Cocklebur [5, 20]: 10; Plant response rating, Surinam Grass [6, 14]: 25; Surinam Grass plant response rating (0 to 100 scale) [6, 15]: 55; Plant response rating, Surinam Grass [6, 16]: 70; Plant response rating, Surinam Grass [6, 17]: 90; Plant response rating, Surinam Grass [6, 19]: 45; Plant response rating, Surinam Grass [6, 20]: 50; Plant response rating, Surinam Grass [6, 21]: 55; Plant response rating, Oat, Wild (wild oat (Avena fatua); [14]): 5; Oat, Wild plant response rating (0 to 100 scale) (wild oat (Avena fatua); [15]): 20; Plant response rating, Oat, Wild (wild oat (Avena fatua); [16]): 50; Plant response rating, Oat, Wild (wild oat (Avena fatua); [17]): 70; Plant response rating, Oat, Wild (wild oat (Avena fatua); [19]): 0; Plant response rating, Oat, Wild (wild oat (Avena fatua); [20]): 0; Plant response rating, Oat, Wild (wild oat (Avena fatua); [21]): 0; Plant response rating, Velvetleaf [7, 14]: 95; Velvetleaf plant response rating (0 to 100 scale) [7, 15]: 100; Plant response rating, Velvetleaf [7, 16]: 100; Plant response rating, Velvetleaf [7, 17]: 100; Plant response rating, Velvetleaf [7, 19]: 95; Plant response rating, Velvetleaf [7, 20]: 100; Plant response rating, Velvetleaf [7, 21]: 100; Plant response rating, Cupgrass, Woolly [8, 14]: 10; Cupgrass, Woolly plant response rating (0 to 100 scale) [8, 15]: 10; Plant response rating, Cupgrass, Woolly [8, 18]: 85; Plant response rating, Cupgrass, Woolly [8, 16]: 55; Plant response rating, Cupgrass, Woolly [8, 17]: 75; Plant response rating, Cupgrass, Woolly [8, 19]: 5; Plant response rating, Cupgrass, Woolly [8, 20]: 20; Plant response rating, Cupgrass, Woolly [8, 21]: 55; Plant response rating, Goosegrass [9, 14]: 65; Goosegrass plant response rating (0 to 100 scale) [9, 15]: 70; Plant response rating, Goosegrass [9, 18]: 98; Plant response rating, Goosegrass [9, 16]: 85; Plant response rating, Goosegrass [9, 17]: 95; Plant response rating, Goosegrass [9, 19]: 80; Plant response rating, Goosegrass [9, 20]: 95; Plant response rating, Goosegrass [9, 21]: 98; Plant response rating, Corn (corn (Zea mays); [14]): 0; Corn plant response rating (0 to 100 scale) (corn (Zea mays); [15]): 15; Plant response rating, Corn (corn (Zea mays); [18]): 0; Plant response rating, Corn (corn (Zea mays); [16]): 80; Plant response rating, Corn (corn (Zea mays); [17]): 80; Plant response rating, Corn (corn (Zea mays); [19]): 0; Plant response rating, Corn (corn (Zea mays); [20]): 0; Plant response rating, Corn (corn (Zea mays); [21]): 0; Plant response rating, Foxtail, Green [10, 14]: 40; Foxtail, Green plant response rating (0 to 100 scale) [10, 15]: 85; Plant response rating, Foxtail, Green [10, 18]: 85; Plant response rating, Foxtail, Green [10, 16]: 85; Plant response rating, Foxtail, Green [10, 17]: 95; Plant response rating, Foxtail, Green [10, 19]: 0; Plant response rating, Foxtail, Green [10, 20]: 5; Plant response rating, Foxtail, Green [10, 21]: 25; Plant response rating, Kochia (kochia (Kochia scoparia); [14]): 70; Kochia plant response rating (0 to 100 scale) (kochia (Kochia scoparia); [15]): 90; Plant response rating, Kochia (kochia (Kochia scoparia); [18]): 95; Plant response rating, Kochia (kochia (Kochia scoparia); [16]): 95; Plant response rating, Kochia (kochia (Kochia scoparia); [17]): 98; Plant response rating, Kochia (kochia (Kochia scoparia); [19]): 80; Plant response rating, Kochia (kochia (Kochia scoparia); [20]): 80; Plant response rating, Kochia (kochia (Kochia scoparia); [21]): 95; Plant response rating, Bromegrass, Downy [11, 14]: 5; Bromegrass, Downy plant response rating (0 to 100 scale) [11, 15]: 5; Plant response rating, Bromegrass, Downy [11, 18]: 5; Plant response rating, Bromegrass, Downy [11, 16]: 25; Plant response rating, Bromegrass, Downy [11, 17]: 40; Plant response rating, Bromegrass, Downy [11, 19]: 0; Plant response rating, Bromegrass, Downy [11, 20]: 0; Plant response rating, Bromegrass, Downy [11, 21]: 0; Plant response rating, Nutsedge, Yellow [12, 14]: 0; Nutsedge, Yellow plant response rating (0 to 100 scale) [12, 15]: 10; Plant response rating, Nutsedge, Yellow [12, 16]: 70; Plant response rating, Nutsedge, Yellow [12, 17]: 80; Plant response rating, Nutsedge, Yellow [12, 19]: 0; Plant response rating, Nutsedge, Yellow [12, 20]: 70; Plant response rating, Nutsedge, Yellow [12, 21]: 85; Plant response rating, Foxtail, Giant [13, 14]: 65; Foxtail, Giant plant response rating (0 to 100 scale) [13, 15]: 80; Plant response rating, Foxtail, Giant [13, 18]: 75; Plant response rating, Foxtail, Giant [13, 16]: 85; Plant response rating, Foxtail, Giant [13, 17]: 90; Plant response rating, Foxtail, Giant [13, 19]: 0; Plant response rating, Foxtail, Giant [13, 20]: 20; Plant response rating, Foxtail, Giant [13, 21]: 55
